# Tests used:
# [1] = test system: cardiomyocytes from double knock-in human iPS cell lines (mCherry at TNNI3 locus); test: Experimental Example 1: mCherry (TNNI3 reporter) immunostaining measured by high contents screening; assay type: cell-based; parameters: key to average fluorescent intensity (at 30 μM): —: The symbol in Table 2 means that the average fluorescent intensity cannot be evaluated due to cell decrease; settings: read on 8th day, Alexa 647 anti-mCherry, control well 797; for average fluorescent intensity (at 1 μM): test compound 1 μM added on 3rd and 6th culture days; for average fluorescent intensity (at 30 μM): test compound 30 μM added on 3rd and 6th culture days
# Method in brief: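 Double knock-in iPS lines (EmGFP at TNNI1, mCherry at TNNI3) differentiated as embryoid bodies in stirred bioreactor at 37 °C, 5% O2: BMP4/activin A/bFGF, then VEGF, IWP-3, dorsomorphin, SB431542, then VEGF alone. On day 14, dissociated cells seeded at 1.0×10^4 cells/well on iMatrix-511 in AK02-based cardiomyocyte medium.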
# [2] = test system: cardiomyocytes (embryoid bodies) from double knock-in human iPS cell lines (mCherry at TNNI3 locus); test: Experimental Example 2: mCherry expression in TNNI1+ cells by flow cytometry; assay type: cell-based; settings: 3 μM, 8th-16th day, DMSO control 7.8
# Description: For detection of cardiomyocyte maturation, double knock-in human iPS cell lines, in which reporter protein sequences, EmGFP (Sequence Number 1) and mCherry (Sequence Number 2) were inserted into gene loci for TNNI1 and TNNI3, respectively, were prepared (the human iPS cells were prepared from episomal vector (loaded gene; OCT3/4, KLF4, SOX2, L-MYC, LIN28, mouse p53DD) using PBMC (LP_167, Sample ID: 20130318) purchased from CTL (reference literature; Okita K, et al. Stem Cells. 2012 Nov. 29. doi: 10.1002/stem.1293)).
# The maintenance culture of the above-mentioned reporter iPS cell lines was carried out by a conventional method (Okita K, et al. Stem Cells. 2012 Nov. 29. doi: 10.1002/stem.1293).
# For differentiation induction into cardiomyocytes, the reporter iPS cell lines were treated with 0.5×TrypLE select (Life Technologies, diluted in 1/2 with 0.5 mM EDTA/PBS) for 4 to 5 minutes, and the cells were exfoliated using a cell scraper (IWAKI), and then dissociated into the single cell by pipetting. The medium was removed by centrifugation (1,000 rpm, 5 min), and the obtained cells were suspended in a medium prepared by adding 1% L-glutamine, transferrin 150 μg/mL, ascorbic acid 50 μg/mL (Sigma), monothioglycerol […], 10 μM Rock inhibitor (Y-27632), 2 ng/mL BMP4 (R&D) and 0.5% Matrigel (Growth Factor Reduced) to StemPro-34 SFM (ThermoFisher) in a 6 well-plate by 2×10^6 cells/1.5 mL/well, and then subjected to static culture at 37° C., under 5% oxygen condition to form embryoid bodies (0 day).
# Next day (1st day), a medium prepared by adding 1% L-glutamine, transferrin 150 μg/mL, ascorbic acid 50 μg/mL (Sigma), monothioglycerol 4><10^−4 M, 1.8 μL (concentration 12 ng/mL) of 10 μg/mL activin A, […] (concentration 10 ng/mL) of 10 μg/mL bFGF and 2.7 μL (concentration 18 ng/mL) of 10 μg/mL BMP4 to 1.5 mL of StemPro-34 SFM (ThermoFisher) was added to each well of the 6 well plate containing the embryoid bodies to adjust the volume combined with the 0 day's medium to final 3 mL (activin A: 6 ng/ml, bFGF: 5 ng/ml, BMP4: 10 ng/ml), and the embryoid bodies were cultured at 37° C. for additional 2 days, under 5% oxygen condition.
# Then (3rd day), the 6 well plate containing the embryoid bodies was inclined, and then left to stand for 1 to 2 minutes until the embryoid bodies were precipitated at the edges of the wells, and the supernatant was aspirated so as not to suck the embryoid bodies. Then, IMDM (ThermoFisher) medium was added to each well, and, as above, the plate was inclined, and then left to stand for 1 to 2 minutes, and the supernatant was aspirated so as not to suck the embryoid bodies. A medium prepared by adding 1% L-glutamine, transferrin 150 μg/mL, ascorbic acid 50 μg/mL (Sigma), monothioglycerol 4×10^−4 M, 10 ng/mL VEGF, 1 μM IWP-3, 0.6 μM dorsomorphin and 5.4 μM SB431542 to 3 mL of StemPro-34 SFM (ThermoFisher) was added to each well of the 6 well plate, and then the embryoid bodies were cultured at 37° C. for 3 days, under 5% oxygen condition.
# Then (6th day), the 6 well plate containing the embryoid bodies was inclined, and then left to stand for 1 to 2 minutes until the embryoid bodies were precipitated at the edges of the wells, and the supernatant was aspirated so as not to suck the embryoid bodies. […]
SMILES,average fluorescent intensity (at 1 μM) [1],average fluorescent intensity (at 30 μM) [1],mCherry+ (%) [2]
"O=C1c2ccc(N3CCCCC3)cc2CN1c1ccc2[nH]c(-c3cccnc3)nc2c1 [Example 46, 5-(piperidin-1-yl)-2-(2-(pyridin-3-yl)-1H-benzimidazol-5-yl)isoindolin-1-one]",1142,1616,47.2%
"O=C1c2ccc(N3CCCCC3)cc2CN1c1ccc2[nH]c(-c3ccncc3)nc2c1 [Example 45, 5-(piperidin-1-yl)-2-(2-(pyridin-4-yl)-1H-benzimidazol-5-yl)isoindolin-1-one]",1130,814,66.6%
"O=C1c2ccc(N3CCCCC3)cc2CN1c1ccc2[nH]c(-c3ccc(O)cc3)nc2c1 [Example 4, 2-(2-(4-hydroxyphenyl)-1H-benzimidazol-5-yl)-5-(piperidin-1-yl)isoindolin-1-one]",1621,894,58.1%
"O=C(COc1ccc(-c2nc3cc(N4Cc5cc(N6CCCCC6)ccc5C4=O)ccc3[nH]2)cc1)Nc1ccc2c(c1)CCS2(=O)=O [Example 17, N-(1,1-dioxido-2,3-dihydro-1-benzothiophen-5-yl)-2-(4-(5-(1-oxo-5-(piperidin-1-yl)-1,3-dihydro-2H-isoindol-2-yl)-1H-benzimidazol-2-yl)phenoxy)acetamide]",1544,1079,42.1%
"CN(C)C(=O)C(NC(=O)COc1ccc(-c2nc3cc(N4Cc5cc(N6CCCCC6)ccc5C4=O)ccc3[nH]2)cc1)c1ccccc1 (stereo not drawn) [Example 13, N,N-dimethyl-2-(((4-(5-(1-oxo-5-(piperidin-1-yl)-1,3-dihydro-2H-isoindol-2-yl)-1H-benzimidazol-2-yl)phenoxy)acetyl)amino)-2-phenylacetamide]",1212,—,
"Cc1cccc(NC(=O)COc2ccc(-c3nc4cc(N5Cc6cc(N7CCCCC7)ccc6C5=O)ccc4[nH]3)cc2)c1 [Example 23, N-(3-methylphenyl)-2-(4-(5-(1-oxo-5-(piperidin-1-yl)-1,3-dihydro-2H-isoindol-2-yl)-1H-benzimidazol-2-yl)phenoxy)acetamide]",1386,,
"O=C(COc1ccc(-c2nc3cc(N4Cc5cc(N6CCOCC6)ccc5C4=O)ccc3[nH]2)cc1)NC1CCOCC1 [Example 31, 2-(4-(5-(5-(morpholin-4-yl)-1-oxo-1,3-dihydro-2H-isoindol-2-yl)-1H-benzimidazol-2-yl)phenoxy)-N-(tetrahydro-2H-pyran-4-yl)acetamide]",736,888,
"CN(C(=O)COc1ccc(-c2nc3cc(N4Cc5cc(N6CCCCC6)ccc5C4=O)ccc3[nH]2)cc1)C1CCOCC1 [Example 14, N-methyl-2-(4-(5-(1-oxo-5-(piperidin-1-yl)-1,3-dihydro-2H-isoindol-2-yl)-1H-benzimidazol-2-yl)phenoxy)-N-(tetrahydro-2H-pyran-4-yl)acetamide]",2143,2012,
"CCOc1ccc(Cc2nc3cc(N4Cc5cc(N6CCOCC6)ccc5C4=O)ccc3[nH]2)cc1 [Example 57, 2-(2-(4-ethoxybenzyl)-1H-benzimidazol-5-yl)-5-(morpholin-4-yl)isoindolin-1-one]",778,1666,

# Source: patent US11401264B2, “Heterocyclic compound” (Orizuru Therapeutics, Inc., priority 2018, dated 2022)
